Test results: patent publication US4707485A, “Substituted te[1]trahydroisoquinoline derivatives having β-adrenergic receptor activity” (Smithkline Beckman Corporation, priority 1985, dated 1987)
Structures can show the parent of a compound that is named as a salt.

Biological target: T1, β-adrenergic receptors (Cavia porcellus, UniProt H0W3H1)
T1 construct: The ventricles and adipose tissue were carefully cut away to leave the atria as an intact pair; from tissue; host or cells: isolated guinea pig atria (intact pair)
Test: Inhibition of isoproterenol-induced enhancement of the rate of contraction of guinea pig atrial pairs in vitro (KB as β-antagonist)
Format: cell-based
Details: guinea pig atria, versus isoproterenol, KB from dose ratio of isoproterenol EC50, 37° C., read-out: receptor dissociation constant (KB) as a β-antagonist
Method: The β-blocking activity of the compounds of structure (I) can be assessed in a test for inhibition of isoproterenol-induced enhancement of the rate of contraction of guinea pig atrial pairs in vitro.
Inhibition of isoproterenol-induced enhancement of constricted guinea pig atria
A guinea pig (500-700 g) was injected with sodium pentobarbital (50 mg/kg, ip). When anesthetized, the heart was removed and placed in cold (5°-10° C.), oxygenated Krebs-Hensleit solution. The ventricles and adipose tissue were carefully cut away to leave the atria as an intact pair. A thread was tied to the apex of each atrium and the tissue suspended in a 50 ml tissue bath, attached to a force-displacement transducer. A diastolic tension of 1 g was maintained. Atrial contraction rate was measured using biotachometer, driven by the transducer amplifier.
A 30 minute stabilization period was allowed before obtaining the first dose response curve, during which time the tissue was washed several times with fresh solution. A concentration-response curve to isoprotererol was then determined, increasing agonist concentrations when the rate response to the previous dose had stabilized. After this determination, any β-antagonist activity of the test compound was measured via a concentration-response curve. […]

T1 sequence (H0W3H1 1-470): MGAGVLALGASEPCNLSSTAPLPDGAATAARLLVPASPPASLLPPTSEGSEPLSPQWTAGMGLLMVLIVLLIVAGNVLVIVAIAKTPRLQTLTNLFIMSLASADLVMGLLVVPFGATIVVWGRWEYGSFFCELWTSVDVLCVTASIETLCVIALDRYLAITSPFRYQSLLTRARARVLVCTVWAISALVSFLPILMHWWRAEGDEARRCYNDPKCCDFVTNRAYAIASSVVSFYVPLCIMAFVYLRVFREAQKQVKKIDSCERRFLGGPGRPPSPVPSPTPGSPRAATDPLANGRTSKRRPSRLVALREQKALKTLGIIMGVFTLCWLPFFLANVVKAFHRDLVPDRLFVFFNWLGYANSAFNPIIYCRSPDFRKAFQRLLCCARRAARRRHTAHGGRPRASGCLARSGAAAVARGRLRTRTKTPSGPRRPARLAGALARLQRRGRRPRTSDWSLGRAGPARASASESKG

**Q.** Which Kb does the source give for COc1cc(CC2NCCc3cc(Cl)c(Cl)cc32)cc(OC)c1OC (stereo not shown) [Example 1, 6,7-dichloro-1-(3,4,5-trimethoxybenzyl)-1,2,3,4-tetrahydroisoquinoline fumarate] here?
**A.** 67 nM
